The text below walks through data of patent US20110052713A1, “REPAIRING DAMAGED NERVOUS SYSTEM TISSUE WITH NANOPARTICLES” (priority 2008, published 2011).

Series [1] relates to voltage gated fast potassium channels. The conditions noted are these: paralyzed persons; cited from earlier work.
Series [2] has as its system PC 12 cells. The series is described as follows: MTT assay after acrolein exposure (MSN study). Type of series: cell-based. Particulars: Rattus norvegicus, read-out: MTT activity (absorbance), % of control values. The procedure:
(§1) Exposure to 100 μM acrolein can induce the death of >80% of a population of PC 12 Cells by a few hours, and 100% by 8-12 hours of observation. […] Typically, populations of cells with acrolein-mediated damage show a significant reduction in MTT activity due to the collapse of mitochondria function.
A general note: Formazan colour is commonly taken as a measure of viable cells.

In series [3] the test system is acrolein poisoned cultures. The series is described as follows: ROS level in acrolein poisoned cultures. The conditions noted are these: 100 μM acrolein; acrolein row = acrolein alone; read-out: level of ROS, % of control values. Type of series: cell-based.
In series [4] the test system is PC 12 cells. The series is described as follows: MTT assay after acrolein exposure (chitosan nanoparticles). Format: cell-based. The procedure: (§2) In one example, functional tests (MTT and LDH exclusion tests) were used to evaluate the response to different chitosan formulations in PC 12 cells suffering from acrolein exposure. We compared the effectiveness of these formulations using entire cell populations in six different groups: 1) a control group, (2) a 100 μM acrolein-exposed group, (3) a 100 μM acrolein-exposed and Chi-DS nanoparticle—treated group, (4) a 100 μM acrolein-exposed and Chi-DS/Hy nanoparticle—treated group, (5) a 100 μM acrolein-exposed and Chi-TPP nanoparticle—treated group, and (6) a 100 μM acrolein-exposed and Chi-TPP/Hy nanoparticle—treated group. First, we tested whether chitosan nanoparticles were capable of sufficiently reducing acrolein cytotoxicity using the MTT assay. In all experiments, the various types of nanoparticles were added to the cell medium after 15 min following the exposure to acrolein. As a consequence of acrolein exposure, approximately 98% of the cells in culture died within a couple of hours. Acrolein-induced cytotoxicity was expressed as a percentage of MTT activity, which is, as explained above, an indicator of aberrant mitochondria functioning. Thus, MTT activity subsequent to 100 acrolein exposure was decreased to 3.5±2.9% of controls values. […] Even more significant increase was observed after application of hydralazine-entrapped chitosan nanoparticles. […]

The subject of series [5] is PC 12 cells. The series is described as follows: LDH release assay after acrolein exposure (MSN study). Type of series: cell-based. The conditions noted are these: Rattus norvegicus, PC-12, 0.25 h; 100 μM acrolein; treatment added with 15 min delay; acrolein row = acrolein alone; read-out: LDH release, % of control values. The method, then: as §1
A general note: Release of lactate dehydrogenase indicates damage to the cell membrane.

Series [6] deals with PC 12 cells. The conditions noted are these: 100 μM acrolein, cited from earlier work.
Series [7] deals with PC 12 cells. Nature of the series: Live-dead cell assay after acrolein exposure. Format: cell-based. Particulars: 5 hr, control cells 90±7%.
For series [8], the system named is PC 12 cells. The series is described as follows: LDH release after acrolein exposure (chitosan nanoparticles). Format: cell-based. Particulars: Rattus norvegicus, 100 μM acrolein, post-treatment with nanoparticles, acrolein row = acrolein alone, read-out: LDH release, % of control values. The procedure:
as §2

Like-named read-outs stand apart in the source and are kept apart here.

On to `Nc1ccncc1` [4-Aminopyridine], for which the “share of treated population with clinically meaningful recoveries of function” value in series [1] is “about 30%”.

In the case of `C=CC=O` [acrolein], the activity at 100 µM came out at 11 ± 10.2% in series [2]; 120 ± 14% in series [3]; 3.5 ± 2.9% in series [4] (Rattus norvegicus, PC-12, 100 μM acrolein, nanoparticles added 15 min after, after 5 hr, acrolein row = acrolein alone, read-out: MTT activity / survival, % of control values); 168 ± 15.4% in series [5]; 178 ± 25.4% in series [8]. For the same compound, in series [4] (acrolein exposure, within a couple of hours), the “cells in culture that died” value is “approximately 98%”. Also, the “death of cell population” value is 100% in series [6] (by 8-12 hours of observation) and more than 80% in series [6] (by a few hours). Also, the “cell survival (live-dead cell assay)” value in series [7] was 30±8%.

As to `NNc1nncc2ccccc12` [hydralazine], the activity at 500 µM in series [2] worked out at 53.8 ± 18.6%.
